Assay results from patent publication US8410161B2, “Thioxanthone ring system derivatives” (National Defense Medical Center, priority 2010, dated 2013).

Tests used:
Type in all cases: cell-based
[1] = tested on: A3 cell lines; experiment: MTT assay, A3 cell lines (lung cancer stem cell)
Excerpt: Please to FIG. 4B, various cell viabilities of the A3 cell lines can be obtained through the MTT assay and illustrated in FIG. 4B while the compounds No. 1˜30 are used to treat A3 cell lines, wherein A3 cell lines are lung cancer stem cell.

[2] = tested on: A control cell lines; experiment: MTT assay, A control cell lines (lung cancer cell)
Excerpt: Please refer to Table 1 and FIGS. 4A-4C. According to a MTT assay (Table 1), various cell viabilities of the A control cell lines can be obtained and illustrated in FIG. 4A while the compounds No. 2˜30 are used to treat A control cell lines, wherein A control cell lines are lung cancer cell.

[3] = tested on: HEL299 fibroblast; experiment: MTT assay, HEL299 fibroblast
Excerpt: (§1) Please refer to FIG. 4C, various cell viabilities of the HEL299 cell lines can be obtained through the MTT assay while the compounds No. 1˜30 are used to treat HEL299 cell lines, wherein HEL299 cell lines are fibroblast.

[4] = MTT assay, HEL299 fibroblast; conditions: human
Excerpt: as §1

CC(C)Sc1ccc2c(=O)c3ccccc3sc2c1Cl [No. 4, 4-Chloro-3-(isopropylthio)-9H-thioxanthen-9-one]
cell viabilities of A3 cell lines (MTT assay) [1]: 56.1% | inhibition effect on A3 cell line (in words) ([1]; summary of MTT cell viabilities): inhibition effect | cell viabilities of A control cell lines (MTT assay) [2]: 91.1 ± 2.02% | cytotoxicity effect on the normal fibroblast (in words) [3]: without the cytotoxicity effect | viability [4]: 103%
